Laboratory results taken from patent US20010018090A1, “Calorie reducing agent” (priority 1999, published 2001).
Converted amounts (≈) assume the structure as drawn.

Molecular target: T1, α-glucosidase (sucrase) existing in small intestine of rat (Rattus norvegicus, UniProt P23739)
T1 construct: the supernatant liquid thereof was used as an enzyme solution (sucrase); from tissue; host or cells: rat small intestinal mucous membrane (brush border membrane)
Test: Inhibition of rat small intestinal α-glucosidase (sucrase), IC50
Format: biochemical
Details: partially purified rat small intestinal sucrase, 5 mM sucrose, 37° C. for 60 minutes
Experimental: As to the α-glucosidase, a sucrase solution which was partially purified from small intestinal mucous membrane (brush edge membrane) of rat was used. Namely, the mucous membrane of small intestine was exfoliated using a slide glass, homogenized at 4° C. for 5 minutes with a phosphate buffer and subjected to an ultrasonic treatment for 5 minutes. The resulting solution of smashed mucous membrane was centrifuged and the supernatant liquid thereof was used as an enzyme solution (sucrase). A 5 mM sucrose solution was used as a substrate, an enzyme solution and a predetermined amount of a 1-deoxynojirimycin solution or a mulberry extract were added and the reaction was carried out at 37° C. for 60 minutes and then stopped by a treatment at 100° C. for 5 minutes. Amount of glucose in the reaction solution was measured by a biochemical automatic analyzer.

T1 sequence (P23739 whole entry): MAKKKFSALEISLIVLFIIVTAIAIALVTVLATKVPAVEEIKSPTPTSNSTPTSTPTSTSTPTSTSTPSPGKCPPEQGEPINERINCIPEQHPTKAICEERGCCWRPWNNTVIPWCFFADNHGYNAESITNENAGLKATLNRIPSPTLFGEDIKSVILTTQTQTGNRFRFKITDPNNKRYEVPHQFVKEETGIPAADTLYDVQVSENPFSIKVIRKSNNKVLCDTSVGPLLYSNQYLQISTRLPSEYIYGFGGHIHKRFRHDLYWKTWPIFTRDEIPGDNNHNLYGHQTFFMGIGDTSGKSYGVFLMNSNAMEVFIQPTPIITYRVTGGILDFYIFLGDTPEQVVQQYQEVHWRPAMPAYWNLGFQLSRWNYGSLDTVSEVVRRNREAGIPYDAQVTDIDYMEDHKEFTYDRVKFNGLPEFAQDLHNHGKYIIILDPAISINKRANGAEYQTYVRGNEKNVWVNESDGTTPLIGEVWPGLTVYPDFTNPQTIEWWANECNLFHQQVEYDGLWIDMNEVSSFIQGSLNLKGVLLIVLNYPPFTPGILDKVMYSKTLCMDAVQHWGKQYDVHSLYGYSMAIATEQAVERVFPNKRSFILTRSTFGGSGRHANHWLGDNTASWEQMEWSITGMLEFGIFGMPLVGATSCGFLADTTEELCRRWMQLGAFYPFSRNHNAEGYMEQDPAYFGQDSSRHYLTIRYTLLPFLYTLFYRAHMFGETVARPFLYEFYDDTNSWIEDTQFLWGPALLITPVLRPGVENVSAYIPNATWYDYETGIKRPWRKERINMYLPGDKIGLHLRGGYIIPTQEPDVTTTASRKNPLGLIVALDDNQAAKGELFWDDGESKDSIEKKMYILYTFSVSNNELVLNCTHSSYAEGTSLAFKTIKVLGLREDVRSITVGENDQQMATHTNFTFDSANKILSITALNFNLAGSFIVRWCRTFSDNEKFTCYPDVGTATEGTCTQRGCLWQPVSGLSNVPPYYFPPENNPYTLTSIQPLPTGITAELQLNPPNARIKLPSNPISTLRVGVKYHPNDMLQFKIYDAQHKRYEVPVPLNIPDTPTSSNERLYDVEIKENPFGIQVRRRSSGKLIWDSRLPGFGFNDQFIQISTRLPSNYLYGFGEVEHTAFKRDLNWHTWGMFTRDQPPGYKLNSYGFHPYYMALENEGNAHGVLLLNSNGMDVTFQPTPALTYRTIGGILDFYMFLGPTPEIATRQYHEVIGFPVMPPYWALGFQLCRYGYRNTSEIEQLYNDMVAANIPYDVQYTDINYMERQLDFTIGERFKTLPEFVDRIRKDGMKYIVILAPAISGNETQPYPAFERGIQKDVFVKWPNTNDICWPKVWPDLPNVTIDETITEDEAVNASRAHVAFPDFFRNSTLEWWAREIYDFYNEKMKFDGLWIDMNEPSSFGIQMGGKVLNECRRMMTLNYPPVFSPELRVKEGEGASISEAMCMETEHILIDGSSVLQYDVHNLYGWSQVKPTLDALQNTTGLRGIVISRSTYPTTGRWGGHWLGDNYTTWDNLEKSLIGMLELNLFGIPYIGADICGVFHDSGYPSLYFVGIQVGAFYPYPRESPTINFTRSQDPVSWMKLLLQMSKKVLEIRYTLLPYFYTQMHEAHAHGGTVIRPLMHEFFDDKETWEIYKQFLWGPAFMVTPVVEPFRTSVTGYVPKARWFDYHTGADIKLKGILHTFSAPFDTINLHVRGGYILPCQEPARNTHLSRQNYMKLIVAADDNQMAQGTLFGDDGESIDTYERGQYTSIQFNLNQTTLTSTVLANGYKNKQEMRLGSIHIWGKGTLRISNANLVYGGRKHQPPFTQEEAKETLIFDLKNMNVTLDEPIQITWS

- IC50 to Sucrase: 0.05 µg/mL (≈ 0.306 µM)
Structure (SMILES): OC[C@H]1NC[C@H](O)[C@@H](O)[C@@H]1O [1-Deoxynojirimycin, 1-deoxynojirimycin]
